± gives the standard deviation of the averaged measurements.
Key:
Experiment in all cases: level (log10 ratio to DMSO vehicle control); higher = higher biomarker level / cell amount than vehicle control
Conditions in all cases: in DMSO
[1] = compound: FC(F)(F)C(F)(F)C(F)(F)C(F)(F)C(F)(F)C(F)(F)I [Perfluoro-1-iodohexane]
Protocol: (§1)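 BioMAP Diversity Plus panel of 12 human primary cell co-culture systems (3C, 4H, LPS, SAg, BT, BF4T, BE3C, CASM3C, HDF3CGF, KF3CT, MyoF, Mphg). Compounds were added 1 h before stimulation and left for 24 h (MyoF 48 h; BT 72 h for soluble read-outs or 6 d for IgG). Biomarkers were read by ELISA, cytotoxicity by SRB, PBMC viability and proliferation by Alamar Blue. Each well value was divided by the mean of 8 DMSO control wells on the same plate and log10 transformed; duplicate blinded samples were tested at 4 concentrations.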

[2] = compound: C=C(C)C(=O)OCCC(F)(F)C(F)(F)C(F)(F)C(F)(F)C(F)(C(F)(F)F)C(F)(F)F [(Perfluoro-5-methylhexyl)ethyl 2-methylprop-2-enoate]
Protocol: as §1

[3] = compound: O=C(O)C(F)(F)C(F)(F)C(F)(F)F [Perfluorobutanoic acid]
Protocol: as §1

[4] = compound: O=C(O)C(F)(F)C(F)(F)C(F)(F)OC(F)(C(F)(F)F)C(F)(F)F [Perfluoro-4-isopropoxybutanoic acid]
Protocol: as §1

[5] = compound: FC(F)(F)C(F)(F)C(F)(F)C(F)(F)C(F)(F)CCI [1-Iodo-1H,1H,2H,2H-perfluoroheptane]
Protocol: as §1

[6] = compound: O=C(O)C(F)(F)C(F)(F)C(F)(F)C(F)(F)C(F)(F)C(F)(F)C(F)(F)C(F)F [9-H-Perfluorononanoic acid]
Protocol: as §1

[7] = compound: NC(=O)C(F)(F)C(F)(F)F [Pentafluoropropionamide]
Protocol: as §1

| Test System | level (log10) ([1]; 6700 nM) | level (log10) ([1]; 20000 nM) | level (log10) ([1]; 60000 nM) | level (log10) ([2]; 6700 nM) | level (log10) ([2]; 20000 nM) | level (log10) ([3]; 6700 nM) | level (log10) ([3]; 20000 nM) | level (log10) ([3]; 60000 nM) | level (log10) ([4]; 6700 nM) | level (log10) ([4]; 20000 nM) | level (log10) ([4]; 60000 nM) | level (log10) ([5]; 6700 nM) | level (log10) ([5]; 20000 nM) | level (log10) ([5]; 60000 nM) | level (log10) ([6]; 6700 nM) | level (log10) ([6]; 20000 nM) | level (log10) ([6]; 60000 nM) | level (log10) ([7]; 6700 nM) | level (log10) ([7]; 20000 nM) | level (log10) ([7]; 60000 nM) |
| --- | --- | --- | --- | --- | --- | --- | --- | --- | --- | --- | --- | --- | --- | --- | --- | --- | --- | --- | --- | --- |
| 4H:CD62P/P-selectin | 0.034 ± 0.028 | -0.012 ± 0.11 | 0.0625 ± 0.14 | -0.017 ± 0.03 | -0.02 ± 0.028 | 0.086 ± 0.076 | 0.0575 ± 0.0035 | 0.09 ± 0.054 | 0.001 ± 0.021 | 0.0165 ± 0.012 | 0.048 ± 0.033 | 0.028 ± 0.075 | 0.049 ± 0.033 | -0.0635 ± 0.044 | 0.033 ± 0.078 | 0.0825 ± 0.0035 | 0.149 ± 0.014 | -0.023 ± 0.054 | -0.0265 ± 0.0078 | -0.0475 ± 0.03 |
| BF4T:IL-1alpha | -0.0075 ± 0.005 | -0.0065 ± 0.012 | -0.004 ± 0.0057 | -0.0155 ± 0.021 | -0.014 ± 0.03 | -0.0025 ± 0.029 | 0.0085 ± 0.0064 | 0.013 ± 0.014 | -0.008 ± 0.018 | -0.0245 ± 0.015 | -0.012 ± 0.023 | 0.0015 ± 0.022 | -0.001 ± 0.011 | 0.0065 ± 0.0092 | 0.0005 ± 0.00071 | -0.019 ± 0.0099 | 0.0055 ± 0.044 | -0.0165 ± 0.0021 | -0.016 ± 0.021 | 0.0065 ± 0.021 |
| BF4T:MMP-9 | -0.0005 ± 0.015 | -0.011 ± 0.0042 | -0.021 ± 0.034 | -0.036 ± 0.05 | -0.007 ± 0.038 | 0.006 ± 0.045 | 0.006 ± 0.059 | 0.022 ± 0.059 | 0.012 ± 0.0057 | 0.0275 ± 0.0064 | 0.058 ± 0.034 | 0.01 ± 0.0014 | 0.03 ± 0.0014 | 0.065 ± 0.017 | -0.073 ± 0.045 | -0.039 ± 0.0071 | -0.004 ± 0.0014 | 0.02 ± 0.024 | -0.001 ± 0.021 | 0.027 ± 0.0042 |
| 3C:CXCL9/MIG | 0.0045 ± 0.025 | 0.007 ± 0.014 | 0.0075 ± 0.029 | -0.001 ± 0.011 | 0.0045 ± 0.0035 | -0.003 ± 0.0042 | -0.0015 ± 0.011 | 0.0085 ± 0.0078 | -0.0015 ± 0.0078 | -0.0085 ± 0.0021 | 0.0105 ± 0.0035 | -0.0035 ± 0.005 | -0.011 ± 0.0028 | -0.0075 ± 0.0064 | -0.013 ± 0.0071 | 0.0095 ± 0.00071 | 0.0045 ± 0.0021 | -0.0025 ± 0.0078 | -0.011 ± 0.0071 | 0.0085 ± 0.012 |
| LPS:sPGE2 | 0.0235 ± 0.0092 | 0.0015 ± 0.00071 | -0.038 ± 0.018 | -0.038 ± 0.05 | -0.016 ± 0.064 | -0.0045 ± 0.012 | 0.0155 ± 0.025 | -0.0075 ± 0.0035 | -0.0145 ± 0.043 | -0.0585 ± 0.022 | -0.0615 ± 0.023 | -0.01 ± 0.042 | -0.0395 ± 0.023 | -0.018 ± 0.0085 | 0.005 ± 0.0057 | -0.0205 ± 0.0092 | -0.096 ± 0.0042 | 0.032 ± 0.0085 | -0.008 ± 0.0071 | -0.018 ± 0.014 |
| SAg:CD38 | -0.059 ± 0.15 | -0.01 ± 0.02 | 0.0005 ± 0.076 | -0.011 ± 0.016 | -0.0055 ± 0.015 | -0.005 | -0.013 ± 0.0085 | -0.012 ± 0.0099 | -0.003 ± 0.014 | -0.0015 ± 0.0035 | -0.017 ± 0.014 | -0.012 ± 0.0042 | 0.007 ± 0.0042 | -0.0125 ± 0.016 | 0.0255 ± 0.039 | -0.015 ± 0.0085 | -0.016 ± 0.011 | -0.026 ± 0.02 | -0.0125 ± 0.028 | 0.0005 ± 0.0064 |
| SAg:CCL2/MCP-1 | 0.006 ± 0.018 | -0.0045 ± 0.021 | 0.005 ± 0.05 | -0.014 ± 0.018 | 0.0065 ± 0.033 | -0.012 ± 0.0028 | -0.014 | 0.0175 ± 0.025 | -0.007 ± 0.021 | 0.006 ± 0.016 | 0.039 ± 0.02 | -0.005 ± 0.0099 | -0.0175 ± 0.0035 | -0.006 ± 0.038 | -0.009 ± 0.014 | -0.022 ± 0.0014 | 0.0245 ± 0.04 | -0.012 ± 0.0014 | -0.018 ± 0.0099 | -0.0095 ± 0.016 |
| BT:sIL-2 | 0.0065 ± 0.052 | -0.0005 ± 0.1 | -0.0005 ± 0.098 | -0.0185 ± 0.025 | -0.0245 ± 0.039 | -0.011 ± 0.0028 | 0.0285 ± 0.066 | 0.0095 ± 0.042 | 0.0175 ± 0.042 | 0.007 ± 0.016 | 0.0175 ± 0.035 | -0.068 ± 0.0042 | 0.027 ± 0.047 | -0.15 ± 0.073 | -0.0245 ± 0.057 | 0.006 ± 0.05 | 0.0195 ± 0.032 | 0.0375 ± 0.0092 | 0.002 ± 0.03 | 0.038 ± 0.017 |
| SAg:SRB | -0.0075 ± 0.011 | -0.002 ± 0.0014 | -0.0045 ± 0.011 | -0.001 ± 0.0042 | -0.0105 ± 0.0078 | -0.013 ± 0.03 | -0.005 ± 0.02 | -0.0075 ± 0.011 | -0.001 ± 0.018 | -0.0085 ± 0.016 | -0.018 ± 0.0085 | 0.0065 ± 0.011 | 0.0015 ± 0.016 | -0.001 ± 0.0085 | -0.002 ± 0.025 | -0.003 ± 0.013 | -0.036 ± 0.0071 | -0.0005 ± 0.016 | -0.0055 ± 0.0092 | -0.01 ± 0.014 |
| 4H:CD87/uPAR | -0.0035 ± 0.053 | 0.017 ± 0.062 | 0.036 ± 0.12 | 0.0115 ± 0.037 | 0 ± 0.0071 | -0.013 ± 0.0071 | -0.0125 ± 0.029 | -0.041 ± 0.0071 | -0.004 ± 0.03 | -0.013 ± 0.0028 | -0.0075 ± 0.0035 | 0.0265 ± 0.018 | 0.0175 ± 0.005 | 0.025 ± 0.03 | 0.002 ± 0.037 | 0.027 ± 0.017 | 0.019 ± 0.013 | 0.009 ± 0.02 | -0.0185 ± 0.00071 | -0.009 ± 0.0099 |
| SAg:CD40 | -0.019 ± 0.013 | -0.0195 ± 0.018 | 0.012 ± 0.061 | 0 ± 0.0071 | -0.0275 ± 0.028 | -0.0055 ± 0.026 | -0.014 ± 0.02 | -0.0015 ± 0.0092 | 0.0105 ± 0.023 | 0.0165 ± 0.005 | -0.008 ± 0.018 | 0.0015 ± 0.0078 | -0.0095 ± 0.0021 | -0.011 ± 0.011 | -0.0265 ± 0.012 | -0.0275 ± 0.016 | -0.059 ± 0.02 | -0.041 ± 0.0071 | -0.0195 ± 0.015 | -0.0445 ± 0.0021 |
| BF4T:uPA | -0.0075 ± 0.013 | -0.016 ± 0.024 | -0.0165 ± 0.0035 | -0.0295 ± 0.0064 | -0.063 ± 0.0014 | -0.005 ± 0.0071 | -0.011 ± 0.021 | -0.0025 ± 0.005 | -0.0085 ± 0.00071 | -0.02 ± 0.0085 | 0.0085 ± 0.03 | 0.0125 ± 0.033 | 0.005 ± 0.0071 | 0.0135 ± 0.0064 | -0.0085 ± 0.016 | -0.0195 ± 0.012 | 0.001 ± 0.013 | -0.013 ± 0.0085 | -0.0075 ± 0.0078 | 0.0045 ± 0.018 |
| 4H:VEGFR2 | 0.0075 ± 0.0092 | 0.006 ± 0.02 | 0.004 ± 0.023 | -0.0185 ± 0.037 | -0.0115 ± 0.033 | -0.025 ± 0.021 | -0.0105 ± 0.005 | 0.004 ± 0.013 | -0.0575 ± 0.015 | -0.056 ± 0.037 | -0.0215 ± 0.088 | 0.002 ± 0.047 | -0.004 ± 0.017 | 0.0155 ± 0.0021 | 0.0105 ± 0.037 | 0.001 ± 0.027 | 0.051 ± 0.0099 | 0.032 ± 0.014 | 0.034 ± 0.027 | 0.072 ± 0.031 |

Reference: the supplement of paper PMC10331698
